The values below come from ChEMBL document CHEMBL1201862, “PubChem BioAssay data set” (2004).

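Assay format: 96-well plates, 48-hour exposure. The concentration for 50% growth inhibition is given as GI50.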 Activity calls are given as the source filed them. Cut-off read from the data, not from the text of the source: active = GI50 up to about 1.1 µM and inactive = higher. Some results are limits rather than exact numbers.

Some test systems named below: LXFL 529; XF498; SNB-78; KM-20L2; DLD-1; HOP-18; DMS-273; RXF 631; DMS-114.
Holding throughout (assay): NCI-60 cell line screen, 48 h

For the compound `COC1=C2C[C@@H](C)C[C@@H](OC)[C@@H](O)[C@H](C)/C=C(\C)[C@@H](OC(N)=O)[C@H](OC)/C=C\C=C(/C)C(=O)NC(=CC1=O)C2=O`, the GI50 is 26.7 nM (active) in the assay with LXFL 529; 78.7 nM (active) in the assay on XF498; 1040 nM (active) in the assay with SNB-78; 26.6 nM (active) in the assay on KM-20L2; 67.9 nM (active) in the assay with DLD-1; 159 nM (active) in the assay with HOP-18. Also, the GI50 in the assay with DMS-273 is 117 nM (active); in the assay with RXF 631, 710 nM (active).

With `O=C(CCCCCCCCCCc1ccccc1)C1=C(O)CC(O)CC1=O` (stereo not given), the GI50 in the assay on LXFL 529 is 53300 nM (inactive); in the assay with XF498, > 100000 nM (inactive); in the assay with SNB-78 it was > 100000 nM (inactive); in the assay on KM-20L2, 55000 nM (inactive); with DLD-1, 80400 nM (inactive); in the assay with HOP-18, > 100000 nM (inactive). The results for the GI50 with DMS-114, in the assay with DMS-273 and in the assay on RXF 631 were 35500 nM (inactive), 48000 nM (inactive) and 56800 nM (inactive), respectively.

`CN(C)CCNC(=O)c1cccc2nc3c4ccccc4c4ccccc4c3nc12`: the GI50 is 2190 nM (inactive) with LXFL 529; 2470 nM (inactive) in the assay with XF498; 14800 nM (inactive) in the assay on SNB-78; 3800 nM (inactive) with KM-20L2; 1560 nM (inactive) with DLD-1; 8710 nM (inactive) in the assay on HOP-18. The GI50 in the assay on DMS-273 was 2810 nM (inactive); with RXF 631, 2330 nM (inactive).
